From US20150072969A1, “PHENYL ALKANOIC ACID DERIVATIVES AS GPR AGONISTS” (PIRAMAL ENTERPRISES LIMITED, priority 2012, published 2015)

These compounds were tested against T1, human GPR40 (Homo sapiens, UniProt O14842) (assay: Inositol phosphate accumulation assay in FFAR1 (GPR40) CHOK1 clone). Conditions: GPR40 agonist activity; intracellular inositol phosphate release in CHOK1 cells stably expressing recombinant human GPR40; 1 h incubation at 37° C.
T1 construct: expressed in transfected cells
T1 sequence (O14842 whole entry): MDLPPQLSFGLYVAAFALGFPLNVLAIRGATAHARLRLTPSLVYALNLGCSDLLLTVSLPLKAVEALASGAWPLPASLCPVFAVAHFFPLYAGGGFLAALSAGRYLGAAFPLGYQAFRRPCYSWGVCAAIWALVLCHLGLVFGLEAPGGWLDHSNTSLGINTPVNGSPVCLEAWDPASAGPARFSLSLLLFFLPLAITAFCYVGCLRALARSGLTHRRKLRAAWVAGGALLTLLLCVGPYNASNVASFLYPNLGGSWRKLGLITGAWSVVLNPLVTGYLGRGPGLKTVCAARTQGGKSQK
Type: cell-based
Procedure: The inositol phosphate accumulation assay was performed to characterise the GPR40 agonist activity of the compounds of the present invention.
The assay was carried out in accordance with the method substantially as described in Diabetes, 2008, 57(8):2211-2219 and PLoS One, 2011, 6(11):e27270.
A stable FFAR1 (GPR40) CHOK1 clone was used to determine the GPR40 agonist activity of the test compounds (compounds of the present invention synthesized in the above Examples). The stable FFAR1 (GPR40) CHOK1 clone expressing recombinant human GPR40 was generated according to the procedure described herein below.
Full-length human GPR40 cDNA (Accession Number: NM_005303) was cloned into mammalian expression vector (pReceiver) and was stably transfected into (Chinese Hamster Ovary) CHOK1 cells using Amaxa technology. 2 μg of pReceiver hGPR40 were transfected into 1×10^6 CHOK1 cells in 6 well plates. The cells were split into three 100 mm cell culture plates on the second day and geneticin (800 μg/ml) was added to the cell culture on the third day. The selection medium comprising Ham's F-12 K supplemented with FBS (10%) and geneticin (800 μg/ml) was changed every three days until colonies were formed. The colonies isolated were further purified (single cell cloning) after 14 days to obtain pure isogenic single cell homogenous population of cells expressing the GPR40 receptor protein on the cell surface. GPR40 receptor expression on cell surface was measured by flow cytometry. The in-house transgenic cell line (clone) created was labeled as FFAR1 (GPR40) CHOK1 clone.
FFAR1 (GPR40) CHOK1 cells were suspended in culture medium comprising Ham's F-12 K supplemented with FBS (10%) and geneticin (800 μg/ml). Cells were seeded at a density of 2×10^4 cells per well in a 384 well tissue culture plate and cultured overnight. The medium was discarded and the cells were further resuspended in a stimulation buffer comprising HEPES (10 mM), glucose (5.5 mM), CaCl2 (1 mM), NaCl (150 mM), KCl (4.2 mM), MgCl2 (0.5 mM) and LiCl (50 mM) having a pH of 7.6. The test compounds (representative compounds of Formula (I)) 10 mM stock were prepared in DMSO and subsequently log fold dilution of the test compounds were carried out in the stimulation buffer. Various concentrations of the test compounds and the standard DMSO solution were added to each well. The plates were further incubated at 37° C., 5% CO2 incubator for 1 h. The final concentration of the test compounds in the each well varied from 1 μM to 10 μM. The DMSO concentration in the assay was 0.1% or less. After incubation, lysis reagent and anti-Tb conjugate were added to each well. The intracellular Inositol Phosphate release and accumulation in the test compounds were measured by the binding ability of the anti-Tb conjugate with the inositol phosphate inherently produced in each well as compared with the inositol phosphate coupled to dye d2 added externally to each well. The plates were then read using Perkin Elmer (Envision) plate reader and the fluorescence signal was captured. The EC50 values for the test compounds were calculated from the non linear regression sigmoidal curve graphs plotted between the concentrations of the test compounds and the fluorescence intensity.
Work on O=C(O)CC1(c2ccc(OCc3cccc(-c4ccccc4)c3)cc2)COC1 [Example 4, 2-(3-(4-([1,1′-Biphenyl]-3-ylmethoxy)phenyl)oxetan-3-yl)acetic acid] yielded an EC50 of 0.1 to 0.5 µM. Work on N#Cc1ccccc1-c1ccc(COc2ccc(C3(CC(=O)O)COC3)cc2)cc1 [Example 6, 2-(3-(4-((2′-Cyano-[1,1′-biphenyl]-4-yl)methoxy)phenyl)oxetan-3-yl)acetic acid] yielded an EC50 of 0.1 to 0.5 µM. In the case of O=C(O)CC1(c2ccc(OCc3ccc(-c4ccccc4)cc3)cc2)COC1 [Example 8, 2-(3-(4-([1,1′-Biphenyl]-4-ylmethoxy)phenyl)oxetan-3-yl)acetic acid], the EC50 is reported as 0.1 to 0.5 µM. Work on Cc1cc(OCCCS(C)(=O)=O)cc(C)c1-c1cccc(COc2ccc(C3(CC(=O)O)COC3)cc2)c1 [Example 10, 2-(3-(4-((2′,6′-Dimethyl-4′-(3-(methylsulfonyl)propoxy)-[1,1′-biphenyl]-3-yl)methoxy)phenyl)oxetan-3-yl)acetic acid] yielded an EC50 of under 0.1 µM. Work on O=C(O)CC1(c2ccc(OCc3cccc(-c4ccccc4)c3)c(F)c2)COC1 [Example 12, 2-(3-(4-([1,1′-Biphenyl]-3-ylmethoxy)-3-fluorophenyl)oxetan-3-yl)acetic acid] yielded an EC50 of over 0.5 µM. O=C(O)CC1(c2ccc(OCc3ccc(-c4ccccc4)cc3)c(F)c2)COC1 [Example 14, 2-(3-(4-([1,1′-Biphenyl]-4-ylmethoxy)-3-fluorophenyl)oxetan-3-yl)acetic acid] was tested, and the EC50 was over 0.5 µM. Compound Cc1cc(OCCCS(C)(=O)=O)cc(C)c1-c1cccc(COc2ccc(C3(CC(=O)O)COC3)cc2F)c1 [Example 16, 2-(3-(4-((2′,6′-Dimethyl-4′-(3-(methylsulfonyl)propoxy)-[1,1′-biphenyl]-3-yl)methoxy)-3-fluorophenyl)oxetan-3-yl)acetic acid] has an EC50 of over 0.5 µM. CC1(C)CCC(C)(C)c2cc(COc3ccc(C4(CC(=O)O)COC4)cc3)ccc21 [Example 18, 2-(3-(4-((5,5,8,8-Tetramethyl-5,6,7,8-tetrahydronaphthalen-2-yl)methoxy)phenyl)oxetan-3-yl)acetic acid] was tested, and the EC50 was 0.1 to 0.5 µM. COc1ccc(COc2ccc(C3(CC(=O)O)COC3)cc2)cc1C(F)(F)F [Example 22] was tested, and the EC50 was over 0.5 µM. Cc1ccc(C(F)(F)F)cc1COc1ccc(C2(CC(=O)O)COC2)cc1 [Example 24] showed an EC50 of over 0.5 µM. Cc1ccc(COc2ccc(C3(CC(=O)O)COC3)cc2)cc1C(F)(F)F [Example 28, 2-(3-(4-((4-Methyl-3-(trifluoromethyl)benzyl)oxy)phenyl)oxetan-3-yl)acetic acid] gave an EC50 of 0.1 to 0.5 µM. With COc1cc(COc2ccc(C3(CC(=O)O)COC3)cc2)ccc1C(F)(F)F [Example 30, 2-(3-(4-((3-Methoxy-4-(trifluoromethyl)benzyl)oxy)phenyl)oxetan-3-yl)acetic acid] the EC50 was over 0.5 µM. Compound O=C(O)CC1(c2ccc(OCc3ccc(C(F)(F)F)c(F)c3)cc2)COC1 [Example 32, 2-(3-(4-((3-Fluoro-4-(trifluoromethyl)benzyl)oxy)phenyl)oxetan-3-yl)acetic acid] has an EC50 of over 0.5 µM. Cc1cc(OCC2CCOC2)cc(C)c1-c1cccc(COc2ccc(C3(CC(=O)O)COC3)cc2)c1 (stereo not shown) [Example 41, 2-(3-(4-((2′,6′-Dimethyl-4′-((tetrahydrofuran-3-yl)methoxy)-[1,1′-biphenyl]-3-yl)methoxy)phenyl)oxetan-3-yl)acetic acid] showed an EC50 of under 0.1 µM. In the case of Cc1cc(OCC2CCOCC2)cc(C)c1-c1cccc(COc2ccc(C3(CC(=O)O)COC3)cc2)c1 [Example 43, 2-(3-(4-((2′,6′-Dimethyl-4′-((tetrahydro-2H-pyran-4-yl)methoxy)-[1,1′-biphenyl]-3-yl)methoxy)phenyl)oxetan-3-yl)acetic acid], the EC50 is reported as under 0.1 µM. For Cc1cc(OCC2CCS(=O)(=O)CC2)cc(C)c1-c1cccc(COc2ccc(C3(CC(=O)O)COC3)cc2)c1 [Example 45, 2-(3-(4-((4′-((1,1-Dioxidotetrahydro-2H-thiopyran-4-yl)methoxy)-2′,6′-dimethyl-[1,1′-biphenyl]-3-yl)methoxy)phenyl)oxetan-3-yl)acetic acid], the EC50 was under 0.1 µM. For Cc1cc(OCC2CCCO2)cc(C)c1-c1cccc(COc2ccc(C3(CC(=O)O)COC3)cc2)c1 (stereo not shown) [Example 47, 2-(3-(4-((2′,6′-Dimethyl-4′-((tetrahydrofuran-2-yl)methoxy)-[1,1′-biphenyl]-3-yl)methoxy)phenyl)oxetan-3-yl)acetic acid], the EC50 was under 0.1 µM. Cc1cc(OC[C@@H]2CCOC2)cc(C)c1-c1cccc(COc2ccc(C3(CC(=O)O)COC3)cc2)c1 [Example 49, (R)-2-(3-(4-((2′,6′-dimethyl-4′-((tetrahydrofuran-3-yl)methoxy)-[1,1′-biphenyl]-3-yl)methoxy)phenyl)oxetan-3-yl)acetic acid] was tested, and the EC50 was under 0.1 µM. Cc1cc(OCC2(C)COC2)cc(C)c1-c1cccc(COc2ccc(C3(CC(=O)O)COC3)cc2)c1 [Example 51, 2-(3-(4-((2′,6′-Dimethyl-4′-((3-methyloxetan-3-yl)methoxy)-[1,1′-biphenyl]-3-yl)methoxy)phenyl)oxetan-3-yl)acetic acid] gave an EC50 of over 0.5 µM. Compound Cc1cc(OCC2CCS(=O)(=O)C2)cc(C)c1-c1cccc(COc2ccc(C3(CC(=O)O)COC3)cc2)c1 (stereo not shown) [Example 53, 2-(3-(4-((4′-((1,1-Dioxidotetrahydrothiophen-3-yl)methoxy)-2′,6′-dimethyl-[1,1′-biphenyl]-3-yl)methoxy)phenyl)oxetan-3-yl)acetic acid] has an EC50 of under 0.1 µM. Cc1cc(OCC2(CO)COC2)cc(C)c1-c1cccc(COc2ccc(C3(CC(=O)O)COC3)cc2)c1 [Example 55, 2-(3-(4-((4′-((3-(Hydroxymethyl)oxetan-3-yl)methoxy)-2′,6′-dimethyl-[1,1′-biphenyl]-3-yl)methoxy)phenyl)oxetan-3-yl)acetic acid] was tested, and the EC50 was under 0.1 µM. For Cc1cc(OC2CCS(=O)(=O)CC2)cc(C)c1-c1cccc(COc2ccc(C3(CC(=O)O)COC3)cc2)c1 [Example 57, 2-(3-(4-((4′-((1,1-Dioxidotetrahydro-2H-thiopyran-4-yl)oxy)-2′,6′-dimethyl-[1,1′-biphenyl]-3-yl)methoxy)phenyl)oxetan-3-yl)acetic acid], the EC50 was 0.1 to 0.5 µM. In the case of Cc1cc(OC2CCCC2)cc(C)c1-c1cccc(COc2ccc(C3(CC(=O)O)COC3)cc2)c1 [Example 59, 2-(3-(4-((4′-(Cyclopentyloxy)-2′,6′-dimethyl-[1,1′-biphenyl]-3-yl)methoxy)phenyl)oxetan-3-yl)acetic acid], the EC50 is reported as over 0.5 µM. CS(=O)(=O)CCCOc1ccc(-c2cccc(COc3ccc(C4(CC(=O)O)COC4)cc3)c2)c(Cl)c1 [Example 62, 2-(3-(4-((2′-Chloro-4′-(3-(methylsulfonyl)propoxy)-[1,1′-biphenyl]-3-yl)methoxy)phenyl)oxetan-3-yl)acetic acid] was tested, and the EC50 was under 0.1 µM. In the case of O=C(O)CC1(c2ccc(OCc3cccc(-c4ccc(OCC5(CO)COC5)cc4Cl)c3)cc2)COC1 [Example 66, 2-(3-(4-((2′-Chloro-4′-((3-(hydroxymethyl)oxetan-3-yl)methoxy)-[1,1′-biphenyl]-3-yl)methoxy)phenyl)oxetan-3-yl)acetic acid], the EC50 is reported as under 0.1 µM. Compound O=C(O)CC1(c2ccc(OCc3cccc(-c4ccc(OCC5CCS(=O)(=O)C5)cc4Cl)c3)cc2)COC1 (stereo not shown) [Example 68, 2-(3-(4-((2′-Chloro-4′-((1,1-dioxidotetrahydrothiophen-3-yl)methoxy)-[1,1′-biphenyl]-3-yl)methoxy)phenyl)oxetan-3-yl)acetic acid] has an EC50 of under 0.1 µM. O=C(O)CC1(c2ccc(OCc3cccc(-c4ccc(OCC5CCS(=O)(=O)CC5)cc4Cl)c3)cc2)COC1 [Example 70, 2-(3-(4-((2′-Chloro-4′-((1,1-dioxidotetrahydro-2H-thiopyran-4-yl)methoxy)-[1,1′-biphenyl]-3-yl)methoxy)phenyl)oxetan-3-yl)acetic acid] was tested, and the EC50 was under 0.1 µM. O=C(O)CC1(c2ccc(OCc3cccc(-c4ccc(OCC5CCOCC5)cc4Cl)c3)cc2)COC1 [Example 72, 2-(3-(4-((2′-Chloro-4′-((tetrahydro-2H-pyran-4-yl)methoxy)-[1,1′-biphenyl]-3-yl)methoxy)phenyl)oxetan-3-yl)acetic acid] was tested, and the EC50 was under 0.1 µM.
